The target of assay [1] is human JAK1 (a.a. 837-1142) (Homo sapiens, UniProt P23458). Kind of assay: In vitro JAK kinase assay (HTRF, phosphorylation of biotinylated peptide), JAK1. In kind it is biochemical. The conditions noted are these: 1 mM ATP. The essentials:
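His-tagged human JAK1 catalytic domain (a.a. 837-1142), baculovirus/insect-cell expressed, phosphorylates a biotinylated peptide for 1 h at room temperature. Reaction stopped with EDTA; product detected by HTRF (SA-APC, Eu-Py20, 40 min binding). IC50 reported as ranges.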

In a further assay the target is T1, JAK2 (a.a. 828-1132) (Homo sapiens, UniProt O60674).
T1 construct: JAK2 (a.a. 828-1132); His tag (N)
In words: In vitro JAK kinase assay (HTRF, phosphorylation of biotinylated peptide), JAK2. In kind it is biochemical. The conditions noted are these: 1 mM ATP. Put shortly:
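His-tagged catalytic domains of human JAK1 (a.a. 837-1142) and JAK2 (a.a. 828-1132), baculovirus-expressed, phosphorylate a biotinylated peptide for 1 hour at room temperature. Stopped with EDTA; detected by HTRF using SA-APC and Eu-Py20 antibody after 40 min binding; values binned as ranges.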
On the technique in general: TR-FRET usually uses a lanthanide donor and a delayed reading to cut background.

Data on two compounds can be found in US10640506B2, “Cyclobutyl substituted pyrrolopyridine and pyrrolopyrimidines derivatives as JAK inhibitors” (Incyte Corporation, priority 2010, dated 2020).

Molecules are shown by their SMILES. Read-outs that look alike come from different tables or passages of the source.

T1 sequence (O60674 828-1132): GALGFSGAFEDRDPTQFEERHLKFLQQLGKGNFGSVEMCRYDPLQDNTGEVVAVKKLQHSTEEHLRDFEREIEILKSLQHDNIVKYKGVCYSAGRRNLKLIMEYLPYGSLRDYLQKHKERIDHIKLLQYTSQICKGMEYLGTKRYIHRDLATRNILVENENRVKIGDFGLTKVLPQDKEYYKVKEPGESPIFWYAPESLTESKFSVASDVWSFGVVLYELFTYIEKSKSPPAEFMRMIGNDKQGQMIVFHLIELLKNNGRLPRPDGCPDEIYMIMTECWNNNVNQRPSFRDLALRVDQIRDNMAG
human JAK1 (a.a. 837-1142), sequence (P23458 849-1154): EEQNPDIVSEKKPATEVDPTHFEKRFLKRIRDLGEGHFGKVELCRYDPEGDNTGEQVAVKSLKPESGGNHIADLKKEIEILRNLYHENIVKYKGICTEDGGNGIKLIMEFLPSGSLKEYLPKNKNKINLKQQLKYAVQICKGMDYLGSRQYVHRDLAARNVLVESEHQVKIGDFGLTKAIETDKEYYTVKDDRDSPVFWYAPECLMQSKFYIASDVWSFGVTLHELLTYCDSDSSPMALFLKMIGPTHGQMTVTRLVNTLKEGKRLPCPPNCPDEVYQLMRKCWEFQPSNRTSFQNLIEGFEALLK

For `N#CC[C@]1(n2cc(-c3ncnc4[nH]ccc34)cn2)C[C@@H](N2CCN(Cc3cc(F)cc(C#N)c3)CC2)C1` [Example 1a, 3-[(4-{cis-3-(cyanomethyl)-3-[4-(7H-pyrrolo[2,3-d]pyrimidin-4-yl)-1H-pyrazol-1-yl]cyclobutyl}piperazin-1-yl)methyl]-5-fluorobenzonitrile], the IC50 (as a rule, the midpoint of a concentration-inhibition curve) is under 10 nM in assay [1] (Table A, read-out: JAK1 IC50) and over 100 nM at JAK2 (a.a. 828-1132) (Table A, read-out: JAK2 IC50).
As for `N#CC[C@]1(n2cc(-c3ncnc4[nH]ccc34)cn2)C[C@H](N2CCC(Oc3cc(CN4CCOCC4)cc(C(F)(F)F)n3)CC2)C1` [Example 159, {trans-3-(4-{[4-(morpholin-4-ylmethyl)-6-(trifluoromethyl)pyridin-2-yl]oxy}piperidin-1-yl)-1-[4-(7H-pyrrolo[2,3-d]pyrimidin-4-yl)-1H-pyrazol-1-yl]cyclobutyl}acetonitrile], the IC50 in assay [1] (Table F) was under 10 nM; against JAK2 (a.a. 828-1132) (Table F), 25 to 100 nM.
